A melting point compilation (Tetko et al.; mined from patent text by program, amines drawn as free bases though some values may be those of a salt)

First: CCOC(=O)C(=O)N1CCC(Cc2ccc(C(C)(C)C)cc2)CC1
Second: Cc1ccc(CC2CCN(C(=O)C(=O)Nc3ccc4[nH]c(=O)sc4c3)CC2)cc1
The melting point of the first is lower: 168 °C for the first, 221 to 222 °C for the second.

First: Oc1cccc(C(O)CNCCCCn2cnc3ccccc32)c1 (configuration not stated)
Second: O=c1ncccn1Cc1ccc2ccccc2c1
The melting point of the first is lower: 58 to 62 °C for the first, 136 to 145 °C for the second.

First: Cc1c(N(C)C)n2c(cc1=O)CCCC2
Second: CSc1nc2cccc3c2n1CC(N(C)C)C3 (configuration not stated)
The melting point of the first is higher: greater than 240 °C for the first, 84 to 86 °C for the second.

Compared with `CCOC(=O)C(Oc1ccc(-c2ccc(Cl)cc2)cc1)(C(F)(F)F)C(F)(F)F`, `CC1CCN(Cc2ccc(CCC(=O)Nc3ccc(-c4ccc(Cl)cc4)cc3)cc2)CC1` is higher in melting point: 44 to 45 °C for the first, 150 to 151 °C for the second.

First: COc1ccc(NC(=O)c2coc(-c3ccncc3)c2)cc1N1CCN(C)CC1
Second: CC1CCn2c(nc(-c3ccncc3)cc2=O)N1 (configuration not stated)
The melting point of the first is lower: 103 to 105 °C for the first, 245 to 247 °C for the second.

First: O=C(OCc1cncs1)Oc1ccc([N+](=O)[O-])cc1
Second: CCOC(=O)C(C#N)=Cc1cc([N+](=O)[O-])ccc1Cl
The melting point of the first is lower: 62 to 64 °C for the first, 83 to 85 °C for the second.

Compared with `c1ccc(Cc2nc(COc3ccc(CCCn4ccnc4)cc3)co2)cc1`, `O=C(Cc1ccccc1)NC(C(=O)O)C(c1ccccc1)c1ccccc1` (configuration not stated) is higher in melting point: 61 to 62 °C for the first, 173 °C for the second.

Compared with `CCOC(=O)C(=CNCc1csnn1)C(=O)c1cc(F)c(F)cc1F`, `CCOC(=O)c1ccc(NC(=O)Cn2ccnc2)cc1` is higher in melting point: 176 to 178 °C for the first, 185 to 187 °C for the second.

First: COc1cc2c(c3c1OC(C)(C)C3)C(c1cccc(N3CCN(C(=O)OC(C)(C)C)S3(=O)=O)c1)=NC(C)(C)C2
Second: COc1cc(OC)nc(Cc2cccnc2NC(=O)OC(C)(C)C)n1
The melting point of the first is higher: 157 to 159 °C for the first, 89 to 92 °C for the second.

Compared with `Cc1cc2c(Cl)nnc(Cl)c2n1Cc1ccccc1`, `Cc1cccc2oc(C(O)[C@H](C)NC(=O)OCc3ccccc3)nc12` (some centres not stated) is lower in melting point: 122 to 124 °C for the first, 98 °C for the second.

First: CNc1nc(-c2cccc(C#Cc3cccnc3)c2)c2cc(OC)c(OC)cc2n1
Second: COc1cc(OCc2ccccn2)c(C=CC(=O)c2ccc(S(N)(=O)=O)cc2)cc1-c1cccs1
The melting point of the first is lower: 103 to 105 °C for the first, 188 to 189 °C for the second.

First: COC(=O)c1cc(NC(C)C)c2cc(Cc3ccc(F)cc3)cnc2c1O
Second: CC(=O)Nc1c(C(=O)c2ccc(F)cc2)[nH]c2cc(Cl)ccc12
The melting point of the first is lower: 121 to 122 °C for the first, 205 to 207 °C for the second.

First: CN(Cc1ccccc1)C(=O)c1cnc2c3c(c(F)cc2c1)C(=O)C(C(=O)O)C=N3 (configuration not stated)
Second: CSc1cnc2c(-c3ccccc3)csc2c1O
The melting point of the first is lower: 168 to 171 °C for the first, 273 to 275 °C for the second.

First: O=[N+]([O-])c1ccc2c(c1)N(c1nnn[nH]1)CC2
Second: O=C(O)CC1(O)CCc2c([nH]c3ccccc23)C1=O (configuration not stated)
The melting point of the first is higher: 262 to 270 °C for the first, 156 to 157 °C for the second.

Compared with `Cc1cc(NC2=NCCN2)n(C(C)C)n1`, `CN(C)CCc1ccc(O)c2[nH]ncc12` is higher in melting point: 173 to 175 °C for the first, 223 to 227 °C for the second.

First: CCC(C)(C)c1ccc2oc(-c3ccc(O)cc3)nc2c1
Second: O=C1NC(=O)C(c2cccc3ccccc23)O1 (configuration not stated)
The melting point of the first is higher: 236 to 237 °C for the first, 188 to 189 °C for the second.

Compared with `CC(C)(C)OC(=O)NCCNc1nnc(N)s1`, `CC(F)C(C)(N)C(N)=O` (configuration not stated) is lower in melting point: 219 to 220 °C for the first, 81 °C for the second.

First: O=C(O)c1cn(-c2cccc(OC(F)F)c2)cn1
Second: O=C(O)C=Cc1ccc(-n2ccccc2=O)cc1
The melting point of the first is lower: 190 to 191 °C for the first, 279 to 282 °C for the second.

Compared with `CC(=O)OCC1OC(ONc2ccc(C)cc2)C(OC(C)=O)C(OC(C)=O)C1OC(C)=O` (configuration not stated), `Cc1ccc2c(c1C)OC(C(=O)O)C2` (configuration not stated) is higher in melting point: 93 °C for the first, 182 °C for the second.

Compared with `COC(=O)CCC(C)C1CCC2C3CCC4CC(N)CCC4(C)C3CC(=O)C12C` (configuration not stated), `CC(C(=O)n1c(=O)oc2ccccc21)C(O)CCCl` (configuration not stated) is lower in melting point: 129 to 130 °C for the first, 116 to 117 °C for the second.

First: CCCCCCCCCCCCCCOc1ccc(CC(=O)CO)cc1
Second: CC(NCc1ccccc1)N(Cc1ccccc1)CC(C)[N+](=O)[O-] (configuration not stated)
The melting point of the first is higher: 84 to 85 °C for the first, 49.5 to 50 °C for the second.
